Test results from US8815919B2, “Oxadiazole derivatives” (Merck Serono SA, priority 2009, dated 2014).
Counter-ions that a name gives are not always drawn. Like-named read-outs stand apart in the source and are kept apart here.

Tests used:
S1P3 = S1P3 (Homo sapiens, UniProt Q99500); test: Receptor binding assay, [33P]sphingosine 1-phosphate competition, S1P3 membranes, WGA SPA beads
Protocol: (§1) Membranes were prepared from CHO cells expressing S1P1 or S1P3 for use in ligand and […] binding studies. Cells were suspended in 50 mM TRIS, pH 7.4, 2 mM EDTA, 250 mM Sucrose (buffer A) and 1× Complete protease inhibitor cocktail (Roche), and disrupted at 4° C. by N2 decompression using a cell disruption bomb (Parr Instrument). Following centrifugation at 1000 RPM for 10 min at 4° C., the supernatant was diluted (2×) in buffer A and centrifuged again at 19000 RPM for 75 min at 4° C. The pellet was then suspended in 10 mM HEPES, pH 7.4, 1 mM EDTA, 250 mM Sucrose (Buffer B), and 1× Complete EDTA-free protease inhibitor cocktail and homogenized using a potter. Membranes were flash frozen in liquid N2 and stored at −80° C.
(§2) Receptor binding assay: [33P]sphingosine 1-phosphate (3000 Ci/mmol; American Radiolabeled Chemicals, Inc.) was added to test compounds in 20% DMSO by competition. Membranes and WGA SPA beads (GE Healthcare) were added to give a final volume of 100 μl in 96-well plates or 50 μl in 384-well plates with assay concentrations of […] [33P]sphingosine 1-phosphate (respectively for S1P1 or S1P3), 50 mM HEPES, pH 7.5, 5 mM MgCl2, 100 mM NaCl, 0.4% fatty acid-free BSA, 1-5 μg/well of proteins in 96-well plates vs 0.6-1 μg/well of proteins in 384-well plates and 100 μg/well of WGA SPA beads in 96-well plates vs 75 μg/well of WGA SPA beads in 384-well plates. Binding was performed for 60 min at RT on a shaker and bound radioactivity was measured on a PerkinElmer 1450 MicroBeta counter. Triplicate samples were averaged and normalized as percentage of inhibition relative to total binding (only DMSO in well) and nonspecific binding (1000-fold excess of unlabeled S1P). Binding data were analyzed using the GraphPad Prism program or Genedata software.

S1P1 [1] = biological target: T1, S1P1 (Homo sapiens, UniProt P21453); test: S1P1 internalization assay in S1P1-U2OS cells (S1P1-EGFP), cell imaging; format: cell-based; set-up: host or cells: U2OS (human bone osteosarcoma epithelial cells), CMV promoter, geneticin selection; conditions: 1 hour incubation
Protocol: Cellular functional assays: Internalization of Sphingosine-1-phosphate receptor 1 (S1P1) in a human Cell line (U2OS) in a 384-well format using a Cell Imaging analysis. • Jo, E.; Sanna, M. G.; Gonzalez-Cabrera, P. J.; Thangada, S.; Tigyi, S.; Osborne, D. A.; Hla, T.; Parrill, A. L.; Rosen, H. Chem. Biol. 2005, 12, 703
The S1P1 internalization assay was performed in 384 well plates (Corning® 384 black with clear bottom 3712) using S1P1-U2OS cells from Biolmage (C039A), a human epithelial cell line (Human Bone Osteosarcoma Epithelial Cells). These cells expressed the human S1P1 Receptor fused to the green fluorescent protein (EGFP). A standard CMV promoter (cytomegalovirus promoter) controls the expression of S1P1-EGFP and continuous expression was maintained by addition of geneticin to the culture medium.
S1P1 Receptor desensitization induced the internalization of the membrane-localized S1P1-EGFP fusion protein to endosomes, which can be monitored by cell imaging analysis. The cells are plated in low serum medium (Dulbecco's Modified Eagle Medium (DMEM) with Glutamax-1 and high glucose, 1% Penicillin/Streptomycin, 1% Fetal Calf Serum (FCS), 0.5 mg/ml Geneticin) overnight.
The next day, S1P1-U2OS cells are incubated in 20 μl serum free medium (DMEM with Glutamax-1 and high glucose, 0.1% of fatty-acid free Bovin Serum Albumin (BSA), 10 mM, N′-2-Hydroxyethylpiperazine-N′-2 ethanesulphonic acid (HEPES) 1M) for 2 hours at 37° C./5% CO2. The cells are then treated with 4 μl compounds/agonists (6×/3% DMSO) for a total volume of 24 μl, and plates are incubated for 1 hour at 37° C./5% CO2.
S1P1-U2OS cells are fixed with 25 μl Paraformaldehyde 8% and stained with Hoechst 33345 dye (1:1000) for 20 minutes.
They were then washed 3 times with Phosphate Buffered Saline (PBS) and plates are sealed. The internalization of the receptor S1P1-EGFP is measured on Cellomics by calculating the “spot count per object” (“object” corresponds to nuclear and “spot” corresponds to S1P1-EGFP receptor). Internalization data were observed thanks to vHCS View and analyzed using Genedata® software.
Target sequence in this assay (P21453 whole entry): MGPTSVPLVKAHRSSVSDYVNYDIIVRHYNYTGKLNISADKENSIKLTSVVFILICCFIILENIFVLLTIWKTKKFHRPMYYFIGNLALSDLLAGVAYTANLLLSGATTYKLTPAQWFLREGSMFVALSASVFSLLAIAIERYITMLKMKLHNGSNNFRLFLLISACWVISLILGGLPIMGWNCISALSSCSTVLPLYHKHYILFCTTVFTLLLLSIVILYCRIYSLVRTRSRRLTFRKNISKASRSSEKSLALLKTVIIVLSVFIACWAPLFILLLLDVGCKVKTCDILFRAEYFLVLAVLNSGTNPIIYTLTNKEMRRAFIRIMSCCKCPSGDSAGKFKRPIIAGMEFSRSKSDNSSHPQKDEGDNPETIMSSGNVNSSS

S1P1 [2] = biological target: T1, S1P1; test: Receptor binding assay, [33P]sphingosine 1-phosphate competition, S1P1 membranes, WGA SPA beads
Protocol: as §1, §2
Target sequence in this assay (P21453 whole entry, species assumed): as the sequence (P21453 whole entry) above

[3] = 96 well-plate, read-out: S1P3 binding Ki (M) (96 well-plate)
[4] = 96 well-plate, read-out: S1P1 binding Ki (M) (96 well-plate)
[5] = 384 well-plate, read-out: S1P3 binding Ki (M) (384 well-plate)
[6] = 384 well-plate, read-out: S1P1 binding Ki (M) (384 well-plate)

Chain of S1P3 (Q99500 whole entry, species assumed): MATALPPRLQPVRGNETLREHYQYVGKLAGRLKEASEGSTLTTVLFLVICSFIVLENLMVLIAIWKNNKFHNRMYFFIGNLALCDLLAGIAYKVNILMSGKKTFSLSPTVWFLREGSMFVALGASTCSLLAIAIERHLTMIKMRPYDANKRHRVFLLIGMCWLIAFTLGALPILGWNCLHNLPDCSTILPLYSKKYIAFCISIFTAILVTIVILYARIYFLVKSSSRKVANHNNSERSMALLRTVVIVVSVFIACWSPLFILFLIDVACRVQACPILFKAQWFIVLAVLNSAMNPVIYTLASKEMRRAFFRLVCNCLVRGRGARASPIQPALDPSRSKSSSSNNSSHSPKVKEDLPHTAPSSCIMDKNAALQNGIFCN

Structure (SMILES)	Ki (S1P3; [3]) [M]	EC50 (S1P1 [1]) [nM]	Ki (S1P1 [2]; [4]) [M]	Ki (S1P3; [5]) [M]	Ki (S1P1 [2]; [6]) [M]
COCc1cc(-c2nc(-c3ccc(OCCO)c(F)c3)no2)ccc1-c1ccccc1C [Example 28, 2-(2-fluoro-4-{5-[2-(methoxymethyl)-2′-methylbiphenyl-4-yl]-1,2,4-oxadiazol-3-yl}phenoxy)ethanol]	2.14e-07	11.9	8.88e-10	–	–
COCc1cc(-c2nc(-c3cccc(CN(C)CC(=O)O)c3)no2)ccc1N1CCCCC1 [Example 29]	–	7.33	1.47e-10	2.38e-07	–
CCOc1cc(-c2nc(-c3cccc(CN(C)CC(=O)O)c3)no2)ccc1-c1ccccc1C [Example 30, N-{3-[5-(2-ethoxy-2′-methylbiphenyl-4-yl)-1,2,4-oxadiazol-3-yl]benzyl}-N-methylglycine, hydrochloride salt]	3e-08	8.92	2.01e-10	–	–
COCc1cc(-c2nc(-c3cccc(CN(C)CC(=O)O)c3)no2)ccc1-c1ccccc1 [Example 33]	6.24e-08	6.96	1.83e-10	–	–
COCc1cc(-c2nc(-c3cccc(CN(C)CC(=O)O)c3)no2)ccc1N1CCCC1C (centres unmarked) [Example 34, N-(3-{5-[3-(methoxymethyl)-4-(2-methylpyrrolidin-1-yl)phenyl]-1,2,4-oxadiazol-3-yl}benzyl)-N-methylglycine]	3.03e-07	13.5	1.18e-10	–	–
COCc1cc(-c2nc(-c3cccc(CN(C)CC(=O)O)c3)no2)ccc1-c1cccc(F)c1C [Example 35, N-(3-{5-[3′-fluoro-2-(methoxymethyl)-2′-methylbiphenyl-4-yl]-1,2,4-oxadiazol-3-yl}benzyl)-N-methylglycine, hydrochloride salt]	9.4e-08	5.88	1.98e-10	–	–
COCc1cc(-c2nc(-c3cccc(CN(C)CC(=O)O)c3)no2)ccc1-c1ccc(F)cc1C [Example 36, N-(3-{5-[4′-fluoro-2-(methoxymethyl)-2′-methylbiphenyl-4-yl]-1,2,4-oxadiazol-3-yl}benzyl)-N-methylglycine, hydrochloride salt]	–	14.8	5.59e-10	2.71e-07	1.97e-09
COCc1cc(-c2nc(-c3cccc(CN(C)CC(=O)O)c3)no2)ccc1-c1cc(F)ccc1C [Example 37, N-(3-{5-[5′-fluoro-2-(methoxymethyl)-2′-methylbiphenyl-4-yl]-1,2,4-oxadiazol-3-yl}benzyl)-N-methylglycine, hydrochloride salt]	6.34e-08	6.56	3.33e-10	–	–
CC1CCCCN1c1ccc(-c2nc(-c3cccc(COCC(=O)O)c3)no2)cc1C(F)(F)F (centres unmarked) [Example 38, [(3-{5-[4-(2-methylpiperidin-1-yl)-3-(trifluoromethyl)phenyl]-1,2,4-oxadiazol-3-yl}benzyl)oxy]acetic acid, hydrochloride salt]	6.74e-07	15.4	6.22e-10	–	–
COCc1cc(-c2nc(-c3cccc(CN(C)CC(O)CO)c3)no2)ccc1-c1ccccc1C (centres unmarked) [Example 39, 3-[(3-{5-[2-(methoxymethyl)-2′-methylbiphenyl-4-yl]-1,2,4-oxadiazol-3-yl}benzyl)(methyl)amino]propane-1,2-diol]	8.48e-07	13.5	3.71e-10	1.18e-06	2.08e-09
COCc1cc(-c2nc(-c3cccc(CN(CCO)CCO)c3)no2)ccc1-c1ccccc1C [Example 40, 2,2′-[(3-{5-[2-(methoxymethyl)-2′-methylbiphenyl-4-yl]-1,2,4-oxadiazol-3-yl}benzyl)imino]diethanol]	5.35e-07	18.2	4.52e-10	9.69e-07	–
COCc1cc(-c2nc(-c3cccc(CC(=O)NCCN(C)C)c3)no2)ccc1-c1ccccc1C [Example 41, N-[2-(dimethylamino)ethyl]-2-(3-{5-[2-(methoxymethyl)-2′-methylbiphenyl-4-yl]-1,2,4-oxadiazol-3-yl}phenyl)acetamide]	–	76.9	1.27e-09	4.3e-06	8.34e-09
COCc1cc(-c2nc(-c3cccc(CN(C)CC(=O)O)c3)no2)ccc1-c1ccc(F)c(F)c1C [Example 42, N-(3-{5-[3′,4′-difluoro-2-(methoxymethyl)-2′-methylbiphenyl-4-yl]-1,2,4-oxadiazol-3-yl}benzyl)-N-methylglycine, hydrochloride salt]	–	18.3	1.82e-10	2.75e-07	1.7e-09
COCc1cc(-c2nc(-c3cccc(CC(=O)NCCC(=O)O)c3)no2)ccc1-c1ccccc1C [Example 43, N-[(3-{5-[2-(methoxymethyl)-2′-methylbiphenyl-4-yl]-1,2,4-oxadiazol-3-yl}phenyl)acetyl]-beta-alanine]	–	34.5	2.16e-09	2e-07	6.6e-09
COCc1cc(-c2nc(-c3cccc(CC(=O)N(C)CC(=O)O)c3)no2)ccc1-c1ccccc1C [Example 44, N-[(3-{5-[2-(methoxymethyl)-2′-methylbiphenyl-4-yl]-1,2,4-oxadiazol-3-yl}phenyl)acetyl]-N-methylglycine]	–	115	1.71e-09	1.31e-07	1.02e-08
C[C@@H]1CCCCN1c1ccc(-c2nc(-c3cccc(CN(C)CC(=O)O)c3)no2)cc1C(F)(F)F [Example 45, N-methyl-N-(3-{5-[4-[(2R)-2-methylpiperidin-1-yl]-3-(trifluoromethyl)phenyl]-1,2,4-oxadiazol-3-yl}benzyl)glycine, hydrochloride salt]	1.82e-07	12.1	5.2e-10	–	–
C[C@H]1CCCCN1c1ccc(-c2nc(-c3cccc(CN(C)CC(=O)O)c3)no2)cc1C(F)(F)F [Example 46, N-methyl-N-(3-{5-[4-[(2S)-2-methylpiperidin-1-yl]-3-(trifluoromethyl)phenyl]-1,2,4-oxadiazol-3-yl}benzyl)glycine, hydrochloride salt]	1.31e-07	5.19	1.07e-10	–	–
COCc1cc(-c2nc(-c3cc(F)c(C(=O)NCCC(=O)O)cc3F)no2)ccc1-c1ccccc1C [Example 47, N-(2,5-difluoro-4-{5-[2-(methoxymethyl)-2′-methylbiphenyl-4-yl]-1,2,4-oxadiazol-3-yl}benzoyl)-beta-alanine]	4.03e-07	20.2	8.5e-10	5.2e-07	–
COCc1cc(-c2nc(-c3cccc(CCN(C)CC(=O)OC(C)(C)C)c3)no2)ccc1-c1ccccc1C [Example 75]	–	195	3.04e-09	–	–
Cc1cc(-c2nc(-c3ccc(CN(C)CC(=O)O)cc3)no2)ccc1-c1ccccc1C(F)F [Example 137, N-(4-{5-[2′-(difluoromethyl)-2-methylbiphenyl-4-yl]-1,2,4-oxadiazol-3-yl}benzyl)-N-methylglycine, hydrochloride salt]	–	28.9	8.55e-10	–	2.37e-09
